Reference: publication PMC12522106 (Cancer Research Communications, 2025)

What was measured:
[1] = test system: monolayers of either established osteosarcoma cell lines or PDX cell lines; parameters: method as in PMID 30395907, PMID 26601688, PMID 37457661, PMID 35411591; conditions: cited from earlier work
[2] = test system: sarcospheres derived from 143B, MG63.3-GFP, and LM7 cell lines; test: Sarcosphere resazurin metabolic activity, results stated across all three cell lines; format: cell-based, human; conditions: for effect on sarcosphere metabolic activity at Cmax: HDIs in clinical trials, tested at their Cmax, with and without MAP; for effect in initial screen: 48 hours, all three cell lines
Experimental: (§1) Khanna DVM, PhD (NCI). […] Medium was sterile filtered before use.
(§2) Highly metastatic osteosarcoma cells cultured in monolayers at 50% to 80% confluence were lifted with Accutase (Innovative Cell Technologies, Inc., cat. #NC9839010), resuspended in media, and diluted to the desired concentration. […] Following cell seeding, plates were centrifuged (1,000 g for 10 minutes at 4°C) and then incubated at 37°C with 5% CO2. […] Then, 100 μL drug treatment or vehicle was added to each well. […] Resazurin reduction on day 2 by vehicle-treated sarcospheres was compared with resazurin reduction on day 0 to calculate sarcosphere growth without drug over 2 days in selected experiments.
(§3) Plates were incubated at 37°C in 5% CO2 for 2 or 6 hours.
(§4) Sarcospheres were matured for 24 hours and then treated for 48 hours with media containing 10 µmol/L of each drug and 0.1% DMSO. […] Growth inhibition represents a more clinically translatable measure for screening studies in which a value of 0% represents stable disease since the start of treatment, values of 0% to 100% represent progression in which 100% is the untreated control, and values less than 0% represent regression in which −100% represents blank wells without sarcospheres.

LM7 sarcospheres = test: Sarcosphere resazurin metabolic activity (initial and secondary screens); format: cell-based, human; conditions: for activity in combination with MAP: Bliss curve fitting, LM7
Experimental: as §1, §2, §3, §4

[3] = test system: spheroids derived from 65 pediatric patients with various types of cancer; parameters: method as in PMID 36575299; conditions: including seven osteosarcomas; cited from earlier work
[4] = cited from earlier work

CC(C)C[C@H](NC(=O)[C@H](CCc1ccccc1)NC(=O)CN1CCOCC1)C(=O)N[C@@H](Cc1ccccc1)C(=O)N[C@@H](CC(C)C)C(=O)[C@@]1(C)CO1 [carfilzomib]
standing in four independent screens [1]: among the top hits
rank of overall mean of the three Cmax/ED50 ratios among the 13 drugs ([2]; without MAP): highest overall mean

CCCCc1nc2cc(/C=C/C(=O)NO)ccc2n1CCN(CC)CC [pracinostat]
effect on sarcosphere metabolic activity at Cmax [2]: weakly inhibited

Cn1cc(CNCC2CCN(c3ncc(C(=O)NO)cn3)CC2)c2ccccc21 [quisinostat]
effect on sarcosphere metabolic activity at Cmax [2]: weakly inhibited

CN(C)Cc1ccc(S(=O)(=O)n2ccc(/C=C/C(=O)NO)c2)cc1 [resminostat]
effect on sarcosphere metabolic activity at Cmax [2]: most effective

Cc1ccc(C(=O)Nc2ccc(CN3CCN(C)CC3)c(C(F)(F)F)c2)cc1C#Cc1cnc2cccnn12 [ponatinib]
activity in combination with MAP (LM7 sarcospheres): additive-to-synergistic activity

Cc1[nH]c2ccccc2c1CCNCc1ccc(/C=C/C(=O)NO)cc1 [panobinostat]
standing in four independent screens [1]: among the top hits
rank of 75 drugs [3]: fifteenth

COc1cccc2c1C(=O)c1c(O)c3c(c(O)c1C2=O)C[C@@](O)(C(=O)CO)C[C@@H]3O[C@H]1C[C@H](N)[C@H](O)[C@H](C)O1 [doxorubicin]
effect in initial screen ([2]; 10 μmol/L): effective

O=C(CCCCCCC(=O)Nc1ccccc1)NO [vorinostat]
activity in combination with MAP (LM7 sarcospheres): additive-to-synergistic activity

Nc1ccccc1NC(=O)c1ccc(CNc2nccc(-c3cccnc3)n2)cc1 [mocetinostat]
effect on sarcosphere metabolic activity at Cmax [2]: weakly inhibited

CC(C)[C@H](C(=O)Nc1ccc(C(=O)NO)cc1)c1ccccc1 [AR-42]
effect on sarcosphere metabolic activity at Cmax [2]: most effective

N.N.[Cl][Pt][Cl] [cisplatin]
effect in initial screen ([2]; 10 μmol/L): no detectable effect

CCN(CC)Cc1ccc2cc(COC(=O)Nc3ccc(C(=O)NO)cc3)ccc2c1 [givinostat]
effect on sarcosphere metabolic activity at Cmax [2]: weakly inhibited

CC(C)C[C@H](NC(=O)[C@H](Cc1ccccc1)NC(=O)c1cnccn1)B(O)O [bortezomib]
standing in four independent screens [1]: among the top hits
rank of 75 drugs [3]: nineteenth

CO[C@H]1C[C@@H]2CC[C@@H](C)[C@@](O)(O2)C(=O)C(=O)N2CCCC[C@H]2C(=O)O[C@H]([C@H](C)C[C@@H]2CC[C@@H](OCCO)[C@H](OC)C2)CC(=O)[C@H](C)/C=C(\C)[C@@H](O)[C@@H](OC)C(=O)[C@H](C)C[C@H](C)/C=C/C=C/C=C/1C [everolimus]
effect in initial screen ([2]; 10 μmol/L): little or no effect

CN(C)Cc1c(C(=O)NCCOc2ccc(C(=O)NO)cc2)oc2ccccc12 [abexinostat]
effect on sarcosphere metabolic activity at Cmax [2]: weakly inhibited

CC[C@@]1(O)C(=O)OCc2c1cc1n(c2=O)Cc2cc3c(CN(C)C)c(O)ccc3nc2-1 [topotecan]
Cmax [4]: 6.5 nM
rank in initial screen ([2]; 10 μmol/L): ranked eighth

COc1cc2nccc(Oc3ccc(NC(=O)C4(C(=O)Nc5ccc(F)cc5)CC4)cc3)c2cc1OC [Cabozantinib, cabozantinib]
rank in initial screen (LM7 sarcospheres; 10 μmol/L): ranked fifteenth
